Assay results from patent US20020002294A1, “Estrogenic compounds as antiangiogenic agents” (priority 1997, published 2002).

Assays:
tubulin [1] = test: inhibition of tubulin polymerization in vitro (turbidity at 350 nm); format: biochemical; conditions: read-out: IC50 (concentration required to inhibit tubulin polymerization by 50%); mean ± S.D.; method of Example 1
Method: Anti-mitotic activity can be evaluated by testing the ability of an estradiol derivative to inhibit tubulin polymerization and microtubule assembly in vitro. Microtubule assembly is followed in a Gilford recording spectrophotometer (model 250 or 2400S) equipped with electronic temperature controllers. A reaction mixture (all concentrations refer to a final reaction volume of […]) contains 1.0 M monosodium glutamate (ph 6.6), 1. omg/ml (10 μM) tubulin, 1.0 mM MgCl2, 4% (v/v) dimethylsulfoxide and 20-75μM of a composition to be tested. The 0.24 ml reaction mixtures are incubated for 15 min. at 37° C. and then chilled on ice. After addition of 10p1 2.5mM GTP, the reaction mixture is transferred to a cuvette at 0° C., and a baseline established. At time zero, the temperature controller of the spectrophotometer is set at 37° C. Microtubule assembly is evaluated by increased turbity at 350 nm.
A. Each reaction mixture (all concentrations refer to the final reaction volume of 0.25 ml) contained 1.0 M monosodium glutamate (pH 6.6), 1.0 mg/ml (10 μM) tubulin, 1.0 mM MgCl2, 4% (v/v) dimethylsulfoxide, and either 0 (curve 1), 20μM (curve 2), 40 μM (curve 3), or 75 μM (curve 4) 2-methoxyestradiol. The 0.24 ml reaction mixtures were incubated for 15 min. at 37° C and chilled on ice. After addition of 10 μl of 2.5 mM GTP the reaction mixtures were transferred to cuvettes held at 0° C., and baselines were established. At time zero the temperature controller was set at 37° C. At the times indicated by the vertical dashed lines the temperature controller was set at the indicated temperatures.
B. Each reaction mixture contained 0.8 M monosodium glutamate (pH 6.6), 1.2 mg/ml (12 μM) tubulin, 4% (v/v) dimethylsulfoxide, and either 0 (curve 1), 1.0 FM (curve 2), 2.0 ,M (curve 3), 3.0 μM (curve 4), or 4.0 μM (curve 5) 2-methoxyestradiol. The 0.24 ml reaction mixtures were incubated for 15 min. at 26° C. and chilled on ice. After addition of 10μl of 10 mM GTP the reaction mixtures were transferred to cuvettes held at 0° C., and baselines were established. At time zero the temperature controller was set at 26° C. At the time indicated by vertical dashed line the temperature controller was set at 0° C.
The method is given in Example 1.
S.D., standard deviation.

tubulin [2] = test: tubulin activities of 2-ME analogs (Table 3); format: biochemical
[3] = system: 8 human breast cancer cell lines; test: human tumor cell panel assay in vitro, breast panel; format: cell-based; design: key to Most Sensitive Cell Lines in Human Tumor Cell Panel Assay: Breast: Most sensitive cell panes are marked with ✓; conditions: for IC50: Homo sapiens, read-out: Tumor Panel: Average log IC50(Molar) against 8 human breast cancer cell lines (converted); for IC50 / Tumor Panel: Average log IC50(Molar) against 8 human breast cancer cell lines: cell panel assay in vitro, two values per cell separated by /; for Most Sensitive Cell Lines in Human Tumor Cell Panel Assay: Breast: 8 cell lines, only MCF-7 and T-47D express estrogen and progesterone receptors
From the text: (§1) The tubulin activities, breast cancer cell line activities, and the cell panels most sensitive to selected analogs are shown in Tables 3 and 4.

CNS cell lines = test: Human Tumor Cell Panel Assay in vitro, CNS panel; format: cell-based; design: key: Most sensitive cell panes are marked with ✓
From the text: as §1

Melanoma cell lines = test: Human Tumor Cell Panel Assay in vitro, melanoma panel; format: cell-based; design: key: Most sensitive cell panes are marked with ✓
From the text: as §1

Renal cell lines = test: Human Tumor Cell Panel Assay in vitro, renal panel; format: cell-based; design: key: Most sensitive cell panes are marked with ✓
From the text: as §1

[4] = system: Ovarian cell lines (especially OVCAR-3); test: Human Tumor Cell Panel Assay in vitro, ovarian panel; format: cell-based; design: key: Most sensitive cell panes are marked with ✓
From the text: as §1

[5] = system: MDA-MB-435 estrogen receptor-negative human breast carcinoma cells; test: In Vivo Tumor Growth Inhibition; design: species or system SCID mice
Method: To determine the antitumor activity of 2-ME and derivatives, SCID mice were s.c. inoculated with 10^6 MDA-MB-435 estrogen receptor-negative human breast carcinoma cells. Treatment was initiated on day 12 when tumor volumes reached 75-100 mm3 in volume. Drugs were suspended in 0.5 g/100 ml of carboxymethylcellulose with sterile glass beads, vortexed for 5 minutes, and administered p.o. in a volume of 0.1 ml. Control mice received 0.1 ml of carboxymethylcellulose p.o. Serial caliper measurements of perpendicular diameters were used to calculate tumor volume using the following: (shortest diameter)^2×(longest diameter)×0.52. T/C was calculated as the volume of treated tumors over the volume of control tumors. A smaller number indicates a greater inhibition of tumor growth.

[6] = system: corneal neovascularization; test: Mouse Corneal Micropocket Assay; format: in vivo, mice; conditions: daily oral, 5 days
Method: Five- to 7-week-old SCID female mice were obtained from Massachusetts General Hospital (Boston, Mass.), Immunocompetent 7-9-week-old female C57BL/6 mice were obtained from ARCH Technical Services, Children's Hospital (Boston, Mass.). All animal studies were conducted according to protocols approved by the Animal Ethics Committee of Children's Hospital. Animals were anesthetized in a methoxyflurane (Pittman-Moore, Mundelein, Ill.) chamber prior to all procedures and were observed until fully recovered. Animals were sacrificed by a lethal dose of methoxyflurane.
Mouse Corneal Micropocket Assay To study the effect of microtubule inhibitors on angiogenesis in vivo, a model of angiogenesis in the mouse cornea was used in […] mice as described previously (Kenyon, B. B., Voest, E. E., Chen, C. C., Folkman, J., and D'Amato, R. J. A model of angiogenesis in the mouse cornea. Invest. Ophthalmol. & Visual Sci., 76: 1625-1632, 1996). In brief, after animals were anesthetized, corneal micropockets were created in both eyes with a modified von Graefe cataract knife. Into each pocket, a 0.4 mm ×0.4 mm×0.2 mm sucrose aluminum sulfate (Bukh Meditee, Copenhagen, Denmark) pellet coated with hydron polymer type NCC (IHN Sciences, New Brunswick, N.J.) containing 80 ng of bFGF or 160 ng of human recombinant […] (gift from Reprogenesis, Cambridge, Mass.) was implanted 1.0-1.2 mm from the limbal vessels (bFGF experiments) or 0.5-0.7 mm from the limbus (VEGF experiments). Erythromycin ointment (E. Fougera, Melville, N.Y.) was applied to each operated eye. The sucralfate acts to stabilize the growth factor and to slow its release from the hydron. Before testing each drug in this assay, we found the maximal dose that could be administered daily for 5 consecutive days without producing signs of toxicity (i.e., no hair loss, diarrhea, infection, lethargy, or weight loss). The treated groups received daily oral administration for 5 consecutive days of the stated dosage of 2-ME or a derivative thereof suspended in 0.5 g/100 ml of carboxymethylcellulose.
Treatment was started on the day of pellet implantation. […] For this purpose, the eyes of the mice were examined by slit-lamp biomicroscopy. Area of corneal neovascularization was calculated using a modified formula for a half-ellipse: Area (mm^2)=[π×clock hours×length (mm)×0.2 mm]. This formula provides the most accurate approximation of the area of neovascularization that grows toward the pellet. (Kenyon, B. B., Voest, E. E., Chen, C. C., Folkman, J., and D'Amato, R. J. A model of angiogenesis in the mouse cornea. Invest. Ophthalmol. & Visual Sci., 76: 1625-1632, 1996).

[7] = 150 mg/kg p.o., duration not stated

Row | Structure (SMILES) | IC50 (tubulin [1]) [µM] | IC50 (tubulin [2]) [µM] | Most Sensitive Cell Lines in Human Tumor Cell Panel Assay: Breast [3] | Most Sensitive Cell Lines in Human Tumor Cell Panel Assay: CNS (CNS cell lines) | Most Sensitive Cell Lines in Human Tumor Cell Panel Assay: Ovarian [4] | further results
1 | C#CC1(O)CCC2C3CCc4cc(O)c(OC)cc4C3CCC21C (stereo not drawn) [2-Methoxy-17-ethynylestradiol] | > 40 | – | – | – | – | –
2 | COc1cc2c(cc1O)CCC1C2CCC2(C)C(O)C(O)CC12 (stereo not drawn) [2-Methoxyestriol] | > 40 | – | – | – | – | –
3 | CC12CCC3c4cc(OCC(F)(F)F)c(O)cc4CCC3C1CCC2O (stereo not drawn) [NSC 678473] | – | 1.7 | – | – | – | IC50 [3]: 0.794 µM; Tumor Panel: Average log IC50(Molar) against 8 human breast cancer cell lines [3]: −5.8 log Molar
4 | COc1ccc2c(c1)CCC1C2CCC2(C)C(O)CCC12 (stereo not drawn) [Estradiol-3-0-methyl ether] | > 40 | – | – | – | – | –
5 | COc1c(O)ccc2c1CCC1C2CCC2(C)C(O)CCC12 (stereo not drawn) [4-Methoxyestradiol] | > 40 | – | – | – | – | –
6 | C[C@]12CC[C@@H]3c4ccc(O)cc4CC[C@H]3[C@@H]1C[C@@H](O)[C@@H]2O [Estriol] | > 40 | – | – | – | – | –
7 | CC=Cc1cc2c(cc1O)CCC1C2CCC2(C)C(O)CCC12 (stereo not drawn) [NSC 667047] | – | 1.2 ± 0.1 | ✓ | ✓ | ✓ | IC50 [3]: 0.1 µM; Tumor Panel: Average log IC50(Molar) against 8 human breast cancer cell lines [3]: −6.9 log Molar; Most Sensitive Cell Lines in Human Tumor Cell Panel Assay: Melanoma (Melanoma cell lines): ✓; Most Sensitive Cell Lines in Human Tumor Cell Panel Assay: Renal (Renal cell lines): ✓; T/C (volume of treated tumors over volume of control tumors) ([5]; 29 days at 75 mg/kg p.o.): 0.40
8 | CC12CCC3c4cc(F)c(O)cc4CCC3C1CCC2O (stereo not drawn) [2-Fluoroestradiol] | 27 ± 6 | – | – | – | – | –
9 | CC#Cc1cc2c(cc1O)CCC1C2CCC2(C)C(O)CCC12 (stereo not drawn) [NSC 682429] | – | 2.2 | ✓ | ✓ | ✓ | inhibition in corneal pocket assay ([6]; 300 mg/kg): 34%; T/C (volume of treated tumors over volume of control tumors) ([5]; 44 days at 225 mg/kg p.o.): 0.25; tumor growth inhibition, comparison in words (FIG. 4) ([5]; FIG. 4): most effective tumor inhibiting compound tested
10 | COc1ccc2c(c1OC)CCC1C2CCC2(C)C(O)CCC12 (stereo not drawn) [4-Methoxyestradiol-3-0-methyl ether] | > 40 | – | – | – | – | –
11 | CCOc1cc2c(cc1O)CCC1C2CCC2(C)C(O)CCC12 (stereo not drawn) [NSC 671043] | – | – | ✓ | ✓ | ✓ | IC50 [3]: 0.0316 µM; Tumor Panel: Average log IC50(Molar) against 8 human breast cancer cell lines [3]: −7.7 log Molar; T/C (volume of treated tumors over volume of control tumors) [5, 7]: 0.9
12 | CC(=O)Nc1cc2c(cc1O)CCC1C2CCC2(C)C(O)CCC12 (stereo not drawn) [NSC 673651] | – | – | – | – | – | Tubulin IC50 (tubulin [2]): weak; IC50 [3]: 30.9 µM
13 | CC12CCC3c4cc(Br)c(O)cc4CCC3C1CCC2O (stereo not drawn) [2-Bromoestradiol] | 4.5 ± 0.6 | – | – | – | – | –
14 | C[C@]12CC[C@@H]3c4cc(OCC(F)(F)F)c(O)cc4C(=O)C[C@H]3[C@@H]1CC[C@@H]2O [NSC 681684] | – | 6 | – | – | – | Tumor Panel: Average log IC50(Molar) against 8 human breast cancer cell lines [3]: −5.06 log Molar; inhibition in corneal pocket assay ([6]; 225 mg/kg): 36%
15 | CCOc1cc2c(cc1O)C(=O)CC1C2CCC2(C)C(O)CCC12 (stereo not drawn) [NSC 679431] | – | 4.8 | ✓ | ✓ | ✓ | Most Sensitive Cell Lines in Human Tumor Cell Panel Assay: Melanoma (Melanoma cell lines): ✓; Most Sensitive Cell Lines in Human Tumor Cell Panel Assay: Renal (Renal cell lines): ✓; T/C (volume of treated tumors over volume of control tumors) [5, 7]: 0.9
16 | C=Cc1cc2c(cc1O)CCC1C2CCC2(C)C(O)CCC12 (stereo not drawn) [NSC 667049] | – | 5.2 ± 1 | ✓ | ✓ | ✓ | IC50 [3]: 2.51 µM; Most Sensitive Cell Lines in Human Tumor Cell Panel Assay: Melanoma (Melanoma cell lines): ✓; Most Sensitive Cell Lines in Human Tumor Cell Panel Assay: Renal (Renal cell lines): ✓
17 | COc1cc2c(cc1OC)C1CCC3(C)C(O)CCC3C1CC2 (stereo not drawn) [2-Methoxyestradiol-3-0-methyl ether] | > 40 | – | – | – | – | –
18 | COc1ccc(CCc2cc(OC)c(OC)c(OC)c2)cc1O [Dihydrocombretastatin A-4] | 0.63 ± 0.03 | – | – | – | – | –
19 | CCOc1cc2c(cc1O)C(O)C[C@@H]1[C@@H]2CC[C@]2(C)[C@@H](O)CC[C@@H]12 (stereo partly drawn) [NSC 683688] | – | – | ✓ | ✓ | ✓ | Tumor Panel: Average log IC50(Molar) against 8 human breast cancer cell lines [3]: −6.3 log Molar; Most Sensitive Cell Lines in Human Tumor Cell Panel Assay: Melanoma (Melanoma cell lines): ✓; Most Sensitive Cell Lines in Human Tumor Cell Panel Assay: Renal (Renal cell lines): ✓
